The series is described as follows: Photostability test in Q-Sun Xenon Test Chamber (accelerated photodegradation), LC/MSD quantitation. It counts as physicochemical. Conditions: for percent Compound 2 remaining: 5 ppm; for effect of sorbate on photostability: 250 ppm potassium sorbate versus no photostabilizer; for effect of sorbate on photostability / rate of degradation, trend with pH: 10 ppm Compound 1 or 5 ppm Compound 2; for rate of degradation, trend with pH: no photostabilizer, pH 2.8, 4.0, 5.0, 7.1; for percent Compound 1 remaining: 10 ppm. As for the experimental part: Aqueous buffer solution at pH 7.1 contains 50 mM potassium dihydogen phosphate and ˜32 mM sodium hydroxide (solutions of 1.0 M hydrochloric acid and 1.0 M sodium hydroxide are used to adjust pH). Aqueous buffer solution at pH 4.0 contains 50 mM citric acid monosodium salt and ˜7.4 mM sodium hydroxide (solutions of 1.0 M hydrochloric acid and 1.0 M sodium hydroxide are used to adjust pH). Aqueous buffer solution at pH 2.8 contains 50 mM citric acid and ˜16 mM sodium hydroxide (solutions of 1.0 M hydrochloric acid and 1.0 M sodium hydroxide are used to adjust pH). Aqueous buffer solution at pH 5.0 contains 50 mM acetic acid and ˜32 mM sodium hydroxide (solutions of 1.0 M hydrochloric acid and 1.0 M sodium hydroxide are used to adjust pH). All the buffers also contained 30 ppm ethylenediaminetetraacetic acid (EDTA).
The stock solutions of the test compounds at 10 mM for compound I and at 2000 ppm for compound II are made by dissolving the compounds in ethanol and water with 0.2% sodium bicarbonate, respectively. The solutions of the stabilizers are made by dissolving the materials in the aqueous buffers. The stock solutions are then diluted to 5 or 10 ppm with the stabilizer solutions to prepare the test solution and 10-mL aliquots of the solutions are transferred to 20-mL clear glass vial for testing.
Accelerated photodegradation was studied using a Q-Sun Xenon Test Chamber (Q-Lab Model No. Xe-1-SC) at an irradiance setting of 350 mW/m^2 at 340 nm and temperature of 25 degrees Celsius. To put this in perspective, 24 hours of constant Q-Sun irradiation at these settings is approximately equivalent to 12.4 days of direct sunlight in the southwestern United States. At 0, 1, 2, 4, 6 and 24 hours from the beginning of the radiation, a 0.4-mL aliquot from each vial is pippeted out to a 1-mL glass insert for analysis.
The samples are analyzed using an Agilent 1290 LC/MSD equipped with a diode-array detector (DAD). The peak areas from the MSD chromatograms are used for quantitation, and the photostability is shown by plotting the percentages of the test compound which remains intact at all time points. The peak areas from the DAD chromatograms are used for quantitation for stabilizers with concentration at […] or higher. The instrument conditions are listed below. • Column: Water Acquity HSS T3 C18 1.8 μm, 2.1×30 mm • Column Temperature: 30° C. • Auto-sampler Temperature: Room temperature • Mobile Phase A: 0.1% formic acid in water • Mobile Phase B: 0.1% formic acid in acetonitrile • Gradient: 0-1 min, linear gradient 5-50% B; 1.0-1.2 min, linear gradient 50-100% B; 1.2-2.0 min, 100% B; flow rate is 1.2 mL/min, and Post time is 0.5 min. • Injection volume: 10 uL • MSD ion source: APCI • MSD Signal settings: Positive, selected ion monitoring (SIM) at the mass of the expected molecular ions. • UV detection wavelength: 230 nm. • MSD detection start time: 0.65 min
A Q-Sun Xenon Test Chamber (Q-Lab Model No. Xe-1-SC), which reproduces the entire spectrum of natural sunlight, was used to study the photostability of Compound 1 in various mediums (with or without photostabilizers). The equivalent sunlight exposure time for 24 hours in the Q-Sun at a constant temperature of 25° C. and irradiance of 450 mW/m^2 @ 340 nm is estimated to be equivalent to approximately 15.9 days of direct sunlight in the Southwestern United States.
A Q-Sun Xenon Test Chamber (Q-Lab Model No. Xe-1-SC), which reproduces the entire spectrum of natural sunlight, was used to study the photostability of Compound 2 in various mediums (with or without photostabilizers). The equivalent sunlight exposure time for 24 hours in the Q-Sun at a constant temperature of 25° C. and irradiance of 450 mW/m^2 @ 340 nm is estimated to be equivalent to approximately 15.9 days of direct sunlight in the Southwestern United States.

Setting [1] is: 250 ppm potassium sorbate, pH 4.0, after 4 hours exposure.
The mark [2] stands for this setting: absence of photostabilizer, pH 7.1, after 4 hours exposure.
Where [3] appears, read: absence of sorbate, pH 2.8, after 4 hours exposure.
Where [4] appears, read: absence of sorbate, pH 4.0, after 4 hours exposure.

Entries after “also recorded” stand apart in the source; their conditions may differ.

For the molecule `CC(C)CC(=O)N1CCC[C@H](COc2cccc3c2C(N)=NS(=O)(=O)N3)C1` [Compound 2, (S)-1-(3-(((4-amino-2,2-dioxido-1H-benzo[c][1,2,6]thiadiazin-5-yl)oxy)methyl)piperidin-1-yl)-3-methylbutan-1-one], the “effect of sorbate on photostability” value was “remarkably improved stability to photo-degradation; also recorded: significantly enhances the photostability” and the “rate of degradation, trend with pH” value is listed as “decreases with decreasing pH”. In addition, under “5 ppm Compound 2, no photostabilizer, all pH values (2.8, 4.0, 5.0, 7.1), after 4 hours light exposure, 25° C.”, the “percentage of Compound 2 remaining” value was “less than 20%”. Moreover, the “percent Compound 2 remaining” value under setting [1] is given as “about 42%”. Moreover, for the setting “250 ppm potassium sorbate, pH 5.0, after 4 hours exposure”, the “percent Compound 2 remaining” value is “about 15%”. Besides, the “percent Compound 2 remaining” value under setting [2] is recorded as “no compound remained”. The “percent Compound 2 remaining” value under setting [3] was “about 15%”. Moreover, the “percent Compound 2 remaining” value under setting [4] is given as “about 5%”.
On to `CCCNC(=O)C(C)(C)COc1cccc2c1C(N)=NS(=O)(=O)N2` [Compound 1, 3-(4-Amino-2,2-dioxide-1H-benzo[c][1,2,6]thiadiazin-5-yloxy)-2′,2′-dimethyl-N-propylpropanamide], for which the “effect of sorbate on photostability” value was “remarkably improved stability to photo-degradation; also recorded: significantly enhances the photostability” and the “rate of degradation, trend with pH” value is “decreases with decreasing pH”. Further, the “percentage of Compound 1 remaining” value (10 ppm Compound 1, no photostabilizer, all pH values (2.8, 4.0, 5.0, 7.1), after 4 hours light exposure, 25° C.) was “less than 20%”. For the same molecule, under setting [1], the “percent Compound 1 remaining” value is on record as “about 47%”. Under setting [2], the “percent Compound 1 remaining” value is “no compound remained”. For the same molecule, the “percent Compound 1 remaining” value under setting [3] is “about 14%”. Besides, under setting [4], the “percent Compound 1 remaining” value was “about 10%”.
